Measured values from patent US10934297B2, “5-heteroaryl substituted indazole-3-carboxamides and preparation and use thereof” (Samumed, LLC, priority 2018, dated 2021).

What was measured:
[1] = system: SW480 colon carcinoma cells; assay: Cell viability assay (CellTiter-Glo) in SW480 colon carcinoma cells; type: cell-based, human; conditions: Homo sapiens, 96 h, four days
Procedure, shortened: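 Viability was taken from CellTiter-Glo ATP luminescence, read about 12 min after reagent addition, relative to DMSO controls. The cells were Sp5-Luc reporter SW480 colon carcinoma cells, 2,000/well in 1% FBS DMEM, exposed to compound for four days at 37 °C.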

[2] = system: Wnt activity (Sp5-Luc reporter in SW480 cells); assay: Screening assay for Wnt activity: Sp5-Luc reporter gene assay in SW480 colon carcinoma cells; type: cell-based, human; conditions: Homo sapiens, 36 to 48 hours
Procedure, shortened: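 EC50 values come from a variable-slope four-parameter fit of luminescence normalized to DMSO-only wells. The read-out follows 36–48 h incubation at 37 °C, 5% CO2, in DMEM containing 1% fetal bovine serum. Cells are hygromycin-selected SW480 stably expressing firefly luciferase under a Wnt-responsive Sp5 promoter (eight TCF/LEF sites).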

[3] = target: GSK3β kinase (Homo sapiens (Human), UniProt P49841); assay: GSK3β kinase assay (Ser/Thr 09 peptide Z-lyte FRET); type: biochemical; conditions: read-out: EC50 (method: IC50)
Procedure, shortened: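 Non-radioactive Z-lyte FRET read-out, kinase activity expressed as coumarin/fluorescein emission ratio. Compounds incubated with the reaction mixture one hour at room temperature in duplicate, then development buffer added for another hour. IC50 from non-linear regression of dose-response curves.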

[4] = target: DYRK1A kinase (Homo sapiens (Human), UniProt Q13627); assay: DYRK1A kinase assay (Ser/Thr 18 peptide Z-lyte FRET); type: biochemical; conditions: read-out: EC50 (method: IC50)
Procedure, shortened: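 Kinase reactions with compound ran 1 h at room temperature in duplicate, and development reagent was then added for another hour.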

[5] = system: IL-6; assay: IL-6 inhibition in LPS-stimulated human peripheral blood mononuclear cells (HTRF); type: cell-based; conditions: Homo sapiens, PBMC; for EC50: huPBMCs, LPS 50 ng/mL, 22 hours, IL-6 HTRF; for inhibition at 10 µM: read-out: percent inhibition at 10 μM
Procedure, shortened: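 HTRF 665/620 nm ratio, read after 3 h antibody incubation at room temperature, quantified IL-6 released by fresh human PBMCs (1×10e6 cells/mL, 1% FBS-RPMI). The cells got compound, then 50 ng/mL LPS at 2 h, followed by a further 22 h at 37° C. EC50 came from DMSO-normalized readings run in duplicate.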

[6] = system: primary human mesenchymal stem cells (hMSCs); assay: Tenocyte differentiation assay (SCXA-positive cells) in hMSCs; type: cell-based; conditions: for EC50: Homo sapiens, Mesenchymal stem cells, 96 h, hMSCs, 4 days, SCXA positive cells; for percent in parentheses under EC50 >100: given for EC50 >100 μM, meaning not defined in this example
Excerpt: Representative compounds were screened using primary human mesenchymal stem cells (hMSCs) to determine their ability to induce tenocyte differentiation (process by which tendon is developed).
Primary human mesenchymal stem cells (hMSCs) were purchased from Lonza (Walkersville, Md.) and expanded in Mesenchymal Stem Cell Growth Media (Lonza). Cells between passage 3 and 6 were used for the experiments.
Cells were fixed using 4% formaldehyde (Electron Microscopy Sciences), and stained with anti-Sclerasis (anti-SCXA) antibodies (Abgent, San Diego, Calif.) [Webb S., et.al., Retinoic acid receptor signaling preserves tendon stem cell characteristics and prevents spontaneous differentiation in vitro, Stem Cell Research & Therapy 2016, 7:45] overnight at 4° C. […] Number of cells positive for SCXA in each well was quantified using the CellInsight CX5. Data was normalized to the average of 12 DMSO treated wells on the same plate using Dotmatics Studies module. The normalized averages (fold change over DMSO) of 3 replicate wells for each compound concentration were calculated. Due to solubility limitations of some of the compounds, values for higher doses were manually corrected and curve fitting and EC50 determinations were performed using Dotmatics Studies.

[7] = system: primary human fibroblasts derived from IPF patients (LL29 cells); assay: Inhibition of the fibrotic process: αSMA staining in TGF-β1 treated LL29 fibroblasts; type: cell-based; conditions: Homo sapiens, Fibroblast; for EC50: 96 h, LL29 cells, TGF-β1 20 ng/mL, 4 days, % αSMA positive cells; for inhibition at 10 µM: read-out: percent inhibition at 10 μM
Procedure, shortened: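 LL29 fibroblasts from IPF patients, in F12 medium with 1% FBS, treated with TGF-β1 plus compound; TGF-β1 with DMSO as positive control, DMSO alone as negative control. After 4 days' incubation, SYTOX green nucleic acid stain added at 1 μM final, 30 min at room temperature.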

GSK3β kinase, sequence (P49841 whole entry): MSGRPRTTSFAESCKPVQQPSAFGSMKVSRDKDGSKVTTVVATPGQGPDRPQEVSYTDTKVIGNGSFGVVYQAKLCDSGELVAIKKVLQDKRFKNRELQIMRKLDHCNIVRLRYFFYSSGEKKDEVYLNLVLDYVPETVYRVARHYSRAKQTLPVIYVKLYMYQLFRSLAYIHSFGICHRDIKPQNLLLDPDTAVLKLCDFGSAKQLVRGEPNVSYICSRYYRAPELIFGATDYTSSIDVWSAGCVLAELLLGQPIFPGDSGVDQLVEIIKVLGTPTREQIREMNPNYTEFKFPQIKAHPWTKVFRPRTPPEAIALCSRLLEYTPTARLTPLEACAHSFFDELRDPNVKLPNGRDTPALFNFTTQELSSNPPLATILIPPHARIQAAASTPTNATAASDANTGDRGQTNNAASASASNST

CN1CCC(Oc2ccc(NC(=O)c3n[nH]c4ccc(-c5cnn(C)c5)cc34)cc2)CC1 [Compound 122, 5-(1-Methyl-1H-pyrazol-4-yl)-N-(4-((1-methylpiperidin-4-yl)oxy)phenyl)-1H-indazole-3-carboxamide]
EC50 [1]: 0.38 µM
EC50 [2]: 0.205 µM
IC50 [3]: 0.038 µM
IC50 [4]: 0.002 µM
EC50 [5]: 0.948 µM
EC50 [6]: > 100 µM
percent in parentheses under EC50 >100 [6]: (37.4%)
EC50 [7]: 2.64 µM

CN1CCC(Oc2ccc(NC(=O)c3n[nH]c4ccc(-c5cnn(C)c5)cc34)cn2)CC1 [Compound 124, 5-(1-Methyl-1H-pyrazol-4-yl)-N-(6-((1-methylpiperidin-4-yl)oxy)pyridin-3-yl)-1H-indazole-3-carboxamide]
EC50 [1]: 0.17 µM
EC50 [2]: 0.14 µM
IC50 [3]: 0.023 µM
IC50 [4]: 0.001 µM
EC50 [5]: 0.989 µM
EC50 [6]: 0.315 µM
EC50 [7]: 0.101 µM

CN1CCC(n2cc(-c3ccc4[nH]nc(C(=O)Nc5cncc(F)c5)c4c3)cn2)CC1 [Compound 125, N-(5-Fluoropyridin-3-yl)-5-(1-(1-methylpiperidin-4-yl)-1H-pyrazol-4-yl)-1H-indazole-3-carboxamide]
EC50 [1]: 0.664 µM
EC50 [2]: 0.355 µM
IC50 [3]: 0.278 µM
IC50 [4]: 0.008 µM
EC50 [5]: 3.52 µM
EC50 [6]: > 100 µM
percent in parentheses under EC50 >100 [6]: (12.3%)
EC50 [7]: 0.599 µM

CN1CCC(n2cc(-c3cc4c(C(=O)Nc5cncc(F)c5)n[nH]c4cc3F)cn2)CC1 [Compound 126, 6-Fluoro-N-(5-fluoropyridin-3-yl)-5-(1-(1-methylpiperidin-4-yl)-1H-pyrazol-4-yl)-1H-indazole-3-carboxamide]
EC50 [1]: 1.53 µM
EC50 [2]: 0.335 µM
IC50 [3]: 0.237 µM
IC50 [4]: 0.009 µM
EC50 [5]: 5.78 µM
EC50 [6]: 2.59 µM
EC50 [7]: 2.45 µM

Cc1ncc(NC(=O)c2n[nH]c3cc(F)c(-c4cnn(C5CCN(C)CC5)c4)cc23)s1 [Compound 127, 6-Fluoro-5-(1-(1-methylpiperidin-4-yl)-1H-pyrazol-4-yl)-N-(2-methylthiazol-5-yl)-1H-indazole-3-carboxamide]
EC50 [1]: 0.093 µM
EC50 [2]: 0.1 µM
IC50 [3]: 0.245 µM
IC50 [4]: 0.004 µM
EC50 [5]: 0.786 µM
EC50 [6]: 2.49 µM
EC50 [7]: 0.048 µM

CNC(=O)c1ccc(NC(=O)c2n[nH]c3ccc(-c4cnn(C5CCN(C)CC5)c4)cc23)cn1 [Compound 128, N-(6-(Methylcarbamoyl)pyridin-3-yl)-5-(1-(1-methylpiperidin-4-yl)-1H-pyrazol-4-yl)-1H-indazole-3-carboxamide]
EC50 [1]: 0.493 µM
EC50 [2]: 0.18 µM
IC50 [3]: 0.633 µM
IC50 [4]: 0.005 µM
EC50 [5]: 3.28 µM
EC50 [6]: 5.72 µM
EC50 [7]: 0.439 µM

CN1CCC(Oc2ccc(NC(=O)c3n[nH]c4c(F)cc(-c5cnn(C)c5)cc34)cn2)CC1 [Compound 129, 7-Fluoro-5-(1-methyl-1H-pyrazol-4-yl)-N-(6-((1-methylpiperidin-4-yl)oxy)pyridin-3-yl)-1H-indazole-3-carboxamide]
EC50 [1]: 3.02 µM
EC50 [2]: 6.12 µM
IC50 [3]: 0.087 µM
IC50 [4]: 0.03 µM
EC50 [5]: 6.77 µM
EC50 [6]: > 100 µM
percent in parentheses under EC50 >100 [6]: (13.0%)
EC50 [7]: 1.84 µM

Cc1ncc(-c2ccc3[nH]nc(C(=O)N[C@@H](C)C(F)(F)F)c3c2)n1C [Compound 131, (S)-5-(1,2-Dimethyl-1H-imidazol-5-yl)-N-(1,1,1-trifluoropropan-2-yl)-1H-indazole-3-carboxamide]
EC50 [1]: 3.04 µM
EC50 [2]: > 10 µM
IC50 [3]: 0.027 µM
IC50 [4]: 0.22 µM
EC50 [5]: > 10 µM
inhibition at 10 µM [5]: 15.1%
EC50 [6]: 2.77 µM
EC50 [7]: 4.49 µM

CC[C@H](NC(=O)c1n[nH]c2ccc(-c3cnc(C)n3C)cc12)C(F)(F)F [Compound 132, (S)-5-(1,2-Dimethyl-1H-imidazol-5-yl)-N-(1,1,1-trifluorobutan-2-yl)-1H-indazole-3-carboxamide]
EC50 [1]: > 10 µM
EC50 [2]: > 10 µM
IC50 [3]: 0.106 µM
IC50 [4]: 0.453 µM
EC50 [5]: > 10 µM
inhibition at 10 µM [5]: 12.7%
EC50 [6]: > 100 µM
percent in parentheses under EC50 >100 [6]: (26.5%)
EC50 [7]: > 10 µM
inhibition at 10 µM [7]: 48.8%

Cc1ncc(-c2ccc3[nH]nc(C(=O)N[C@@H](C(C)C)C(F)(F)F)c3c2)n1C [Compound 133, (S)-5-(1,2-Dimethyl-1H-imidazol-5-yl)-N-(1,1,1-trifluoro-3-methylbutan-2-yl)-1H-indazole-3-carboxamide]
EC50 [1]: > 10 µM
EC50 [2]: > 10 µM
IC50 [3]: 1.35 µM
IC50 [4]: 0.93 µM
EC50 [5]: > 10 µM
inhibition at 10 µM [5]: 20.2%
EC50 [6]: > 100 µM
percent in parentheses under EC50 >100 [6]: (15.8%)
EC50 [7]: > 10 µM
inhibition at 10 µM [7]: 35.8%

Cc1ncc(-c2cc(F)c3[nH]nc(C(=O)N[C@@H](C)C(F)(F)F)c3c2)n1C [Compound 134, (S)-5-(1,2-Dimethyl-1H-imidazol-5-yl)-7-fluoro-N-(1,1,1-trifluoropropan-2-yl)-1H-indazole-3-carboxamide]
EC50 [1]: > 10 µM
EC50 [2]: > 10 µM
IC50 [3]: 0.046 µM
IC50 [4]: 0.482 µM
EC50 [5]: > 10 µM
inhibition at 10 µM [5]: 8.1%
EC50 [6]: > 100 µM
percent in parentheses under EC50 >100 [6]: (38.8%)
EC50 [7]: 1.07 µM

C[C@H](NC(=O)c1n[nH]c2c(F)cc(-c3cnn(C)c3)cc12)C(F)(F)F [Compound 135, (S)-7-Fluoro-5-(1-methyl-1H-pyrazol-4-yl)-N-(1,1,1-trifluoropropan-2-yl)-1H-indazole-3-carboxamide]
EC50 [1]: > 10 µM
EC50 [2]: > 10 µM
IC50 [3]: 0.043 µM
IC50 [4]: 0.439 µM
EC50 [5]: > 10 µM
inhibition at 10 µM [5]: 50.6%
EC50 [6]: > 100 µM
percent in parentheses under EC50 >100 [6]: (16.1%)
EC50 [7]: > 10 µM

Cn1cc(-c2ccc3[nH]nc(C(=O)NC45CC6CC(CC(C6)C4)C5)c3c2)cn1 [Compound 137, N-((3s,5s,7s)-Adamantan-1-yl)-5-(1-methyl-1H-pyrazol-4-yl)-1H-indazole-3-carboxamide]
EC50 [1]: 5.22 µM
EC50 [2]: 4.24 µM
IC50 [3]: 1.34 µM
IC50 [4]: 8.29 µM
EC50 [5]: > 10 µM
EC50 [6]: 2.48 µM
EC50 [7]: 2.09 µM

Cc1coc(NC(=O)c2n[nH]c3cc(F)c(-c4cnn(C5CCN(C)CC5)c4)cc23)n1 [Compound 138, 6-Fluoro-N-(4-methyloxazol-2-yl)-5-(1-(1-methylpiperidin-4-yl)-1H-pyrazol-4-yl)-1H-indazole-3-carboxamide]
EC50 [1]: 0.105 µM
EC50 [2]: 0.125 µM
IC50 [3]: 0.193 µM
IC50 [4]: 0.006 µM
EC50 [5]: 2.73 µM
EC50 [6]: 4.92 µM
EC50 [7]: 0.435 µM

Cn1cc(-c2ccc3[nH]nc(C(=O)Nc4cnn(C5CCNCC5)c4)c3c2)cn1 [Compound 140, 5-(1-Methyl-1H-pyrazol-4-yl)-N-(1-(piperidin-4-yl)-1H-pyrazol-4-yl)-1H-indazole-3-carboxamide]
EC50 [1]: 2.6 µM
EC50 [2]: 0.713 µM
IC50 [3]: 0.005 µM
IC50 [4]: 0.002 µM
EC50 [5]: 1.25 µM
EC50 [6]: > 100 µM
percent in parentheses under EC50 >100 [6]: (12.6%)
EC50 [7]: 0.301 µM
